According to patent US12060334B2, “3-substituted phenazine derivatives as antimicrobial agents” (University of Florida Research Foundation, Incorporated, priority 2021, dated 2024):
Converted amounts (≈) assume the structure as drawn. “And” between values parts separate entries of the source, which are not always exact repeats. Equal values may be shown once. “Also recorded” adds a separate entry of the source. Read-outs that look alike come from different tables or passages of the source. Marks after values point to notes of the source that are not given here.

Experiments:
[1] = system: E. faecalis OG1RF biofilms; assay: Calgary Biofilm Device (CBD) assay; conditions: Enterococcus faecalis, OG1RFBIOFILMS, read-out: E.faecalis OG1RF MBC
Mtb CDC1551 = assay: microbe, parasite or virus in culture; type: cell-based, Mycobacterium tuberculosis
MRSA-1707 biofilms = assay: Calgary Biofilm Device (CBD) assay; conditions: Staphylococcus aureus, read-out: MRSA-1707 MBC
MRSE 35984 = assay: MIC susceptibility assay (broth microdilution); conditions: Staphylococcus epidermidis, MRSE, 16 h, read-out: MIC MRSE 35984
Method: (§1) (MIC values were further supported by spectrophotometric readings at OD600). The concentration range tested for each HP compound during this study was 0.05 to 50 μM. DMSO served as our vehicle and negative control in each microdilution MIC assay. DMSO was serially diluted with a top concentration of 0.5% v/v.

VRE 700221 = assay: MIC susceptibility assay (broth microdilution); conditions: 16 h; for MIC: Enterococcus, VRE, read-out: MIC VRE 700221
Method: The concentration range tested for each HP compound during this study was 0.05 to 50 μM. DMSO served as our vehicle and negative control in each microdilution MIC assay. DMSO was serially diluted with a top concentration of 0.5% v/v.

HepG2 cells = assay: Alamar Blue cytotoxicity assay, HepG2; conditions: read-out: Hep G2 Cytotox. (IC50), 24-h
E. faecalis OG1RF = assay: MIC susceptibility assay (broth microdilution); conditions: Enterococcus faecalis, 16 h, read-out: MIC E. faecalis OG1RF
Method: as §1

J774 MΦ = assay: Alamar Blue cytotoxicity assay, J774 macrophages; conditions: read-out: J774 MΦ Cytotox. (IC50), 24-h
human red blood cells = assay: Hemolysis assay with red blood cells; conditions: human RBCs, 1 hour, 37° C.
Method: Hemolysis assays are used to determine the membrane-lysis activity of a compound, which is of particular interest to this work as membrane-lysing agents (e.g., QACs) can eradicate biofilms.
Cytotoxicity Assay against HEK-293 Cells.^48 The viability of HEK-293 cells was assessed by the MTT assay. The cells were cultured in DMEM medium containing 10% fetal bovine serum and 100 U/mL penicillin and streptomycin. The cells (10^4 cells/well) were seeded onto a 96-well plate and maintained at 37° C. in a humidified incubator under 5% CO2 overnight. […] After incubation at 37° C. for 72 hours, 10 μL of MTT (5 mg/mL) in PBS was added to each well and incubated for 4 hours, followed by the aspiration of the medium. Dimethyl sulfoxide (DMSO, 100 μL) was then added to each well to dissolve the MTT in the wells, and the plate was agitated for 1 hour. The optical density (OD) was measured at 570 nm using a UV/vis microplate spectrophotometer (BioTek). The percent inhibition was calculated as follows: Inhibition (%)=(1−test OD570/non-treated OD570)×100%. The data were analyzed by Origin. Hemolysis Assay with Red Blood Cells. […] The washing was repeated three times with the buffer. In 96-well plate, test compounds were added to the buffer from DMSO stocks. […] The plate was then incubated for 1 hour at 37° C. After incubation, the plate was centrifuged for 5 minutes at 3,500 rpm before 80 μL of the supernatant was transferred to another 96-well plate to obtain an optical density (OD) read at 405 nm. DMSO served as the negative control (0% hemolysis) while Triton X served as the positive control (100% hemolysis) in these experiments. The percent hemolysis was calculated as (OD405 of the compound treated RBCs−OD405 DMSO control)/(OD405 Triton X treated RBCs−OD405 buffer) from three independent experiments.

Mtb H37Ra = assay: MIC assay for Mtb H37Ra; conditions: seven days, 37° C.
HeLa cells = assay: LDH release assay for HeLa cytotoxicity; conditions: read-out: HeLa Cell Cytotox. (IC50), 24-h, tested at 25, 50 and 100 μM
MRSA-44 = assay: MIC susceptibility assay (broth microdilution); conditions: Staphylococcus aureus, 16 h, read-out: MIC MRSA-44
Method: as §1

MRSA-1707 = assay: MIC susceptibility assay (broth microdilution); conditions: 16 h; for MIC: Staphylococcus aureus, MRSA, read-out: MIC MRSA-1707, planktonic growth inhibition, 16 h, 37° C.
Method: as §1

[2] = system: MRSA, MRSE and VRE strains; assay: MIC assays, summary statements over several Gram-positive strains; conditions: read-out: MIC against MRSA, MRSE and VRE strains
Method: as §1

[3] = system: isdB, sfaA, sbnC, MW0695 transcripts in MRSA-1707 biofilms; assay: RT-qPCR of iron uptake genes in MRSA biofilms; conditions: 4 h treatment at 1 μM or 1/10×MBEC
MRSE 35984 biofilms = assay: Calgary Biofilm Device (CBD) assay; conditions: Staphylococcus epidermidis, MRSE, read-out: MRSE 35984 MBC
[4] = pKa determination by UV-vis spectroscopy; type: physicochemical
Method: (c) pKa determination of select HP analogues.^36 Dissociation constants (pKa) for select HP analogues were determined using UV-vis spectroscopy and the Henderson-Hasselbalch equation. Buffers were prepared using potassium phosphate monobasic (KH2PO4) and sodium phosphate dibasic ([…]) in a 1:1 solution of water:methanol to achieve a pH range of 4.07 to 9.66 (ammonium hydroxide was added to prepare buffer pH over 9.80). Compounds were added from 10 mM stock solutions in dimethyl sulfoxide (25 μL) to 1975 μL of each buffer to each evaluate analogue to yield a final compound concentration of 125 μM. Full spectral scans were performed from 200 to 800 nm in 2 nm increments to determine λmax values for the protonated phenol (HA) and the deprotonated phenolate species (A^−). The change in absorption at each determined λmax in relation to pH was monitored in each buffer and plotted as absorbance versus pH for each species. The pKa was first estimated by determining the pH of the point of intersection of the two linear curves. The visual estimation was confirmed by plotting pH versus log [A^−/HA]. The resulting plot yielded a linear regression line with a Y-intercept corresponding to a calculated pKa value.

S. aureus 147 = assay: MIC assay against clinical isolate; type: cell-based; conditions: Staphylococcus aureus, 147, read-out: MIC S. aureus 147
VRE 700221 biofilms = assay: Calgary Biofilm Device (CBD) assay; conditions: Enterococcus, read-out: VRE 700221 MBC
[5] = Mycobacterium tuberculosis, CDC1551, 120 h
[6] = planktonic growth inhibition, 37° C.

Cc1c(Br)ccc2nc3c(O)c(Br)c(Cl)c(Br)c3nc12 [Compound 31, 2,4,7-Tribromo-3-chloro-6-methylphenazin-1-ol] gave an MBC [1] of 1.56 µM (≈ 0.751 µg/mL), an MIC (Mtb CDC1551) of 0.88 µM (≈ 0.424 µg/mL) and an MIC (Mtb CDC1551; [5]) of 0.88 µM (≈ 0.424 µg/mL). For the same compound, the MBC (MRSA-1707 biofilms) was 75 µM (≈ 36.1 µg/mL), the MIC (MRSE 35984) was 0.1 µM (≈ 0.0481 µg/mL) and the MIC (VRE 700221) was no more than 0.05 µM. It also gave an IC50 (HepG2 cells) greater than 200 µM, an MIC (E. faecalis OG1RF) of 0.08 µM (≈ 0.0385 µg/mL) and an IC50 (J774 MΦ) greater than 200 µM. For the same compound, the “% Hemolysis at 200 μM” value (human red blood cells) was 27%.
With Oc1cc(Cl)cc2nc3c(Cl)cc(Cl)cc3nc12 [Compound 24, 3,6,8-Trichlorophenazin-1-ol] the MIC (Mtb CDC1551; [5]) was 2.31 µM (≈ 0.692 µg/mL), the “MIC Mtb H37Ra” value (Mtb H37Ra) was 3.13 µM (≈ 0.938 µg/mL) and the MBC (MRSA-1707 biofilms) was 18.8 µM (≈ 5.63 µg/mL). For the same compound, the IC50 (HeLa cells) was greater than 100 µM, the IC50 (HepG2 cells) was greater than 200 µM and the MIC (MRSA-44) was 0.3 µM (≈ 0.0899 µg/mL). The IC50 (J774 MΦ) was greater than 200 µM and the “% Hemolysis at 200 μM” value (human red blood cells) was no more than 1%.
With [H]/N=C(/N)N[C@H]1[C@H](O)[C@@H](O)[C@H](O[C@@H]2O[C@@H](C)[C@](O)(C=O)[C@H]2O[C@@H]2O[C@@H](CO)[C@H](O)[C@@H](O)[C@@H]2NC)[C@@H](N/C(N)=N\[H])[C@@H]1O [Streptomycin, reference compound] the “MIC Mtb H37Ra” value (Mtb H37Ra) was 1.32 µM (≈ 0.768 µg/mL).
In the case of Cc1cccc2nc3c(O)c(Br)c(SCCO)c(Br)c3nc12 [Compound 46, 2,4-Dibromo-3-((2-hydroxyethyl)thio)-6-methylphenazin-1-ol], the MIC (MRSA-1707) is reported as 6.25 µM (≈ 2.78 µg/mL), the MIC [2] is reported as 2.35 to 12.5 µM (≈ 1.04 to 5.55 µg/mL) and the MIC (MRSA-44) is reported as 6.25 µM (≈ 2.78 µg/mL).
With Oc1c(Br)c(Cl)c(Br)c2nc3ccccc3nc12 [Compound 28, 2,4-Dibromo-3-chlorophenazin-1-ol] the MBC [1] was 75 µM (≈ 29.1 µg/mL), the MIC (Mtb CDC1551; [5]) was 4.37 µM (≈ 1.7 µg/mL) and the “MIC Mtb H37Ra” value (Mtb H37Ra) was 6.25 µM (≈ 2.43 µg/mL). For the same compound, the MBC (MRSA-1707 biofilms) was 50 µM (≈ 19.4 µg/mL), the IC50 (HeLa cells) was greater than 100 µM and the IC50 (HepG2 cells) was greater than 200 µM. For the same compound, the MIC (E. faecalis OG1RF) was 3.13 µM (≈ 1.22 µg/mL), the “iron starvation / up-regulation of iron uptake genes in MRSA-1707 biofilms” value [3] was “induction of iron starvation; also recorded: up-regulating iron uptake genes; also recorded: induced rapid iron starvation; also recorded: rapidly induce iron starvation” and the MBC (MRSE 35984 biofilms) was 12.5 µM (≈ 4.86 µg/mL). For the same compound, the MIC (MRSA-1707) was 0.15 µM (≈ 0.0583 µg/mL), the “MIC MRSA-1707” value (MRSA-1707; [6]) was 0.15^a μM and 0.15 μM and the pKa [4] was 5.93. The IC50 (J774 MΦ) was greater than 200 µM and the “% Hemolysis at 200 μM” value (human red blood cells) was no more than 1%.
Compound Oc1cc(Cl)cc2nc3ccccc3nc12 [Compound 18, 3-Chlorophenazin-1-ol] has an MIC (MRSE 35984) of 18.8 µM (≈ 4.34 µg/mL), an MIC (VRE 700221) greater than 50 µM and an MIC (MRSA-1707) of 25 µM (≈ 5.77 µg/mL).
With CN[C@H](CC(C)C)C(=O)N[C@H]1C(=O)N[C@@H](CC(N)=O)C(=O)N[C@H]2C(=O)N[C@H]3C(=O)N[C@H](C(=O)N[C@H](C(=O)O)c4cc(O)cc(O)c4-c4cc3ccc4O)[C@H](O)c3ccc(c(Cl)c3)Oc3cc2cc(c3O[C@@H]2O[C@H](CO)[C@@H](O)[C@H](O)[C@H]2O[C@H]2C[C@](C)(N)[C@H](O)[C@H](C)O2)Oc2ccc(cc2Cl)[C@H]1O [Vancomycin, reference compound] the MBC [1] was 11.7 µM (≈ 17 µg/mL), the MIC (S. aureus 147) was 0.59 µM (≈ 0.855 µg/mL) and the MIC (VRE 700221) was greater than 100 µM. The “MIC VRE 700221” value (VRE 700221; [6]) was greater than 100 µM, the MBC (VRE 700221 biofilms) was 750 µM (≈ 1090 µg/mL) and the MBC (MRSE 35984 biofilms) was 3 µM (≈ 4.35 µg/mL).
Compound CC(=O)NC[C@H]1CN(c2ccc(N3CCOCC3)c(F)c2)C(=O)O1 [Linezolid, reference compound] has an MBC (MRSA-1707 biofilms) of 31.3 µM (≈ 10.6 µg/mL) and an MIC (MRSA-1707) of 12.5 µM (≈ 4.22 µg/mL).
